Measured values taken from patent publication US6737383B1, “Herbicidal oxadiazolidines” (priority 1999, dated 2004).

Legend:
blackgrass = experiment: Test B pre/postemergence blackgrass; type: in vivo, Alopecurus myosuroides
Procedure, shortened: (§1)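 Response is a visual 0-to-10 score relative to untreated plants, where 0 means no effect and 10 means complete control, taken twelve to sixteen days after application. Treatments went onto soil at planting and onto foliage of 1- to 4-leaf plants, using a surfactant-containing non-phytotoxic solvent.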

morningglory = experiment: Test B pre/postemergence morningglory; type: in vivo, Ipomoea hederacea
Procedure, shortened: as §1

crabgrass = experiment: Test B pre/postemergence crabgrass; type: in vivo, Digitaria sanguinalis
Procedure, shortened: as §1

purple nutsedge = experiment: Test B pre/postemergence purple nutsedge; type: in vivo, Cyperus rotundus
Procedure, shortened: as §1

wheat = experiment: Test B pre/postemergence wheat; type: in vivo, Triticum aestivum; conditions: for Plant response rating, Wheat: Postemergence
Procedure, shortened: as §1

bedstraw = experiment: Test B pre/postemergence bedstraw; type: in vivo, Galium aparine
Procedure, shortened: as §1

giant foxtail = experiment: Test B pre/postemergence giant foxtail; type: in vivo, Setaria faberii
Procedure, shortened: as §1

pigweed = experiment: Test B pre/postemergence pigweed; type: in vivo, Amaranthus retroflexus; conditions: for Plant response rating, Redroot pigweed: Postemergence
Procedure, shortened: as §1

wild oat = experiment: Test B pre/postemergence wild oat; type: in vivo, Avena fatua; conditions: for Plant response rating, Wild oats: Postemergence
Procedure, shortened: as §1

cocklebur = experiment: Test B pre/postemergence cocklebur; type: in vivo, Xanthium strumarium
Procedure, shortened: as §1

soybean = experiment: Test B pre/postemergence soybean; type: in vivo, Glycine max; conditions: for Plant response rating, Soybean: Postemergence
Procedure, shortened: as §1

velvetleaf = experiment: Test B pre/postemergence velvetleaf; type: in vivo, Abutilon theophrasti; conditions: for Plant response rating, Velvetleaf: Postemergence
Procedure, shortened: as §1

corn = experiment: Test B pre/postemergence corn; type: in vivo, Zea mays
Procedure, shortened: as §1

rape = experiment: Test B pre/postemergence rape; type: in vivo, Brassica napus
Procedure, shortened: as §1

surinam grass = experiment: Test B pre/postemergence surinam grass; type: in vivo, Brachiaria decumbens
Procedure, shortened: as §1

sugar beet = experiment: Test B pre/postemergence sugar beet; type: in vivo, Beta vulgaris; conditions: for Plant response rating, Sugarbeets: Postemergence
Procedure, shortened: as §1

[1] = Postemergence, Rate 62 g/ha, scale of 0 to 10, 0 is no effect, 10 is complete control
[2] = Postemergence, Rate 125 g/ha, scale 0 to 10, 0 is no effect, 10 is complete control
[3] = Postemergence, Rate 500 g/ha, scale of 0 to 10 where 0 is no effect and 10 is complete control
[4] = Preemergence, Rate 62 g/ha, scale 0 to 10 (0 no effect, 10 complete control)
[5] = Preemergence, Rate 125 g/ha, scale 0 to 10, 0 is no effect, 10 is complete control
[6] = Preemergence, Rate 500 g/ha, scale of 0 to 10 where 0 is no effect and 10 is complete control
[7] = Rate 250 g/ha, Postemergence, scale of 0 to 10 where 0 is no effect and 10 is complete control
[8] = Rate 500 g/ha, scale of 0 to 10 where 0 is no effect and 10 is complete control
[9] = Rate 250 g/ha, scale of 0 to 10 where 0 is no effect and 10 is complete control

CCOC(=O)C=C(Cn1c(=O)on(C(=O)N(c2ccccc2)C(C)C)c1=O)OCC [Compound 578]
Blackgrass plant response rating (blackgrass; [1]): 0
Blackgrass plant response rating (blackgrass; [2]): 0
Plant response rating, Blackgrass (blackgrass; [3]): 2
Blackgrass plant response rating (blackgrass; [4]): 0
Blackgrass plant response rating (blackgrass; [5]): 0
Blackgrass plant response rating (0 to 10 scale) (blackgrass; Preemergence, Rate 250 g/ha): 0
Blackgrass plant response rating (blackgrass; [6]): 4
Plant response rating, Blackgrass (blackgrass; [7]): 0
Morningglory plant response rating (morningglory; [1]): 9
Morningglory plant response rating (morningglory; [2]): 10
Plant response rating, Morningglory (morningglory; [3]): 10
Morningglory plant response rating (morningglory; [4]): 0
Morningglory plant response rating (morningglory; [5]): 0
Morningglory plant response rating (0 to 10 scale) (morningglory; Preemergence, Rate 250 g/ha): 0
Morningglory plant response rating (morningglory; [6]): 0
Plant response rating, Morningglory (morningglory; [7]): 10
Crabgrass plant response rating (crabgrass; [1]): 0
Crabgrass plant response rating (crabgrass; [2]): 2
Plant response rating, Crabgrass (crabgrass; [3]): 9
Crabgrass plant response rating (crabgrass; [4]): 0
Crabgrass plant response rating (crabgrass; [5]): 9
Crabgrass plant response rating (0 to 10 scale) (crabgrass; Preemergence, Rate 250 g/ha): 9
Crabgrass plant response rating (crabgrass; [6]): 10
Plant response rating, Crabgrass (crabgrass; [7]): 4
Plant response rating, Nutsedge (purple nutsedge; [3]): 0
Nutsedge plant response rating (purple nutsedge; [4]): 0
Nutsedge plant response rating (purple nutsedge; [5]): 0
Nutsedge plant response rating (0 to 10 scale) (purple nutsedge; Preemergence, Rate 250 g/ha): 0
Nutsedge plant response rating (purple nutsedge; [6]): 0
Plant response rating, Wheat (wheat; [8]): 0
Wheat plant response rating (wheat; [4]): 0
Wheat plant response rating (wheat; [5]): 0
Wheat plant response rating (0 to 10 scale) (wheat; Preemergence, Rate 250 g/ha): 0
Wheat plant response rating (wheat; [6]): 2
Plant response rating, Wheat (wheat; [9]): 0
Bedstraw plant response rating (bedstraw; [2]): 8
Bedstraw plant response rating (bedstraw; [4]): 0
Bedstraw plant response rating (bedstraw; [5]): 0
Bedstraw plant response rating (0 to 10 scale) (bedstraw; Preemergence, Rate 250 g/ha): 0
Bedstraw plant response rating (bedstraw; [6]): 0
Giant foxtail plant response rating (giant foxtail; [1]): 0
Giant foxtail plant response rating (giant foxtail; [2]): 4
Plant response rating, Giant foxtail (giant foxtail; [3]): 8
Giant foxtail plant response rating (giant foxtail; [4]): 2
Giant foxtail plant response rating (giant foxtail; [5]): 9
Giant foxtail plant response rating (0 to 10 scale) (giant foxtail; Preemergence, Rate 250 g/ha): 10
Giant foxtail plant response rating (giant foxtail; [6]): 10
Plant response rating, Giant foxtail (giant foxtail; [7]): 7
Plant response rating, Redroot pigweed (pigweed; [8]): 3
Redroot pigweed plant response rating (pigweed; [4]): 2
Redroot pigweed plant response rating (pigweed; [5]): 4
Redroot pigweed plant response rating (0 to 10 scale) (pigweed; Preemergence, Rate 250 g/ha): 9
Redroot pigweed plant response rating (pigweed; [6]): 10
Plant response rating, Redroot pigweed (pigweed; [9]): 3
Plant response rating, Wild oats (wild oat; [8]): 0
Wild oats plant response rating (wild oat; [4]): 0
Wild oats plant response rating (wild oat; [5]): 0
Wild oats plant response rating (0 to 10 scale) (wild oat; Preemergence, Rate 250 g/ha): 2
Wild oats plant response rating (wild oat; [6]): 2
Plant response rating, Wild oats (wild oat; [9]): 0
Cocklebur plant response rating (cocklebur; [1]): 0
Cocklebur plant response rating (cocklebur; [2]): 0
Plant response rating, Cocklebur (cocklebur; [3]): 0
Cocklebur plant response rating (cocklebur; [4]): 0
Cocklebur plant response rating (cocklebur; [5]): 0
Cocklebur plant response rating (0 to 10 scale) (cocklebur; Preemergence, Rate 250 g/ha): 0
Cocklebur plant response rating (cocklebur; [6]): 3
Plant response rating, Cocklebur (cocklebur; [7]): 0
Plant response rating, Soybean (soybean; [8]): 4
Soybean plant response rating (soybean; [4]): 0
Soybean plant response rating (soybean; [5]): 0
Soybean plant response rating (0 to 10 scale) (soybean; Preemergence, Rate 250 g/ha): 0
Soybean plant response rating (soybean; [6]): 0
Plant response rating, Soybean (soybean; [9]): 3
Plant response rating, Velvetleaf (velvetleaf; [8]): 3
Velvetleaf plant response rating (velvetleaf; [4]): 0
Velvetleaf plant response rating (velvetleaf; [5]): 2
Velvetleaf plant response rating (0 to 10 scale) (velvetleaf; Preemergence, Rate 250 g/ha): 2
Velvetleaf plant response rating (velvetleaf; [6]): 2
Plant response rating, Velvetleaf (velvetleaf; [9]): 4
Corn plant response rating (corn; [1]): 0
Corn plant response rating (corn; [2]): 0
Plant response rating, Corn (corn; [3]): 0
Corn plant response rating (corn; [4]): 3
Corn plant response rating (corn; [5]): 2
Corn plant response rating (0 to 10 scale) (corn; Preemergence, Rate 250 g/ha): 2
Corn plant response rating (corn; [6]): 4
Plant response rating, Corn (corn; [7]): 0
Rape plant response rating (rape; [1]): 2
Rape plant response rating (rape; [2]): 2
Plant response rating, Rape (rape; [3]): 4
Rape plant response rating (rape; [4]): 0
Rape plant response rating (rape; [5]): 0
Rape plant response rating (0 to 10 scale) (rape; Preemergence, Rate 250 g/ha): 2
Rape plant response rating (rape; [6]): 4
Plant response rating, Rape (rape; [7]): 4
B. signalgrass plant response rating (surinam grass; [1]): 0
B. signalgrass plant response rating (surinam grass; [2]): 0
Plant response rating, B. signalgrass (surinam grass; [3]): 0
B. signalgrass plant response rating (surinam grass; [4]): 0
B. signalgrass plant response rating (surinam grass; [5]): 3
B. signalgrass plant response rating (0 to 10 scale, 0 is no effect, 10 is complete control) (surinam grass; Preemergence, Rate 250 g/ha): 9
B. signalgrass plant response rating (surinam grass; [6]): 9
Plant response rating, B. signalgrass (surinam grass; [7]): 0
Plant response rating, Sugarbeets (sugar beet; [8]): 4
Sugarbeets plant response rating (sugar beet; [4]): 0
Sugarbeets plant response rating (sugar beet; [5]): 2
Sugarbeets plant response rating (0 to 10 scale) (sugar beet; Preemergence, Rate 250 g/ha): 3
Sugarbeets plant response rating (sugar beet; [6]): 3
Plant response rating, Sugarbeets (sugar beet; [9]): 0
